According to ChEMBL document CHEMBL3124780, “The synthesis of 4,7-disubstituted-2H-benzo[b][1,4]-oxazin-3(4H)-ones using Smiles rearrangement and their in vitro evaluation as platelet aggregation inhibitors” (Bioorg Med Chem Lett, 2014):

Assay: Antiplatelet activity in New Zealand rabbit platelet-rich plasma assessed as inhibition of ADP-induced aggregation treated for 5 mins prior to ADP-challenge measured after 1 to 6 mins by spectrophotometric analysis
Type: functional, cell-free
Settings: Oryctolagus cuniculus

| Structure (SMILES) | IC50 [µM] |
| --- | --- |
| CCCCN1C(=O)COc2cc(CN3CCN(c4ccccc4)CC3)ccc21 | 15.5 |
| CCCCN1C(=O)COc2cc(CN3CCN(c4ccccc4F)CC3)ccc21 | 17.1 |
| O=C1COc2cc(CN3CCN(c4ccccc4F)CC3)ccc2N1Cc1ccccc1 | 15.3 |
| CCCN1C(=O)COc2cc(CN3CCN(Cc4ccccc4)CC3)ccc21 | 9.2 |
| CCN1C(=O)COc2cc(CN3CCOCC3)ccc21 | 10.5 |
| CC(C)N1C(=O)COc2cc(CN3CCOCC3)ccc21 | 11 |
| CCCN1C(=O)COc2cc(CN3CCOCC3)ccc21 | 9.63 |
| CCCCN1C(=O)COc2cc(CN3CCOCC3)ccc21 | 14.4 |
| O=C1COc2cc(CN3CCOCC3)ccc2N1Cc1ccccc1 | 12.2 |
| CCN1C(=O)COc2cc(CN3CCN(c4ccccc4)CC3)ccc21 | 10.1 |
| CC(C)N1C(=O)COc2cc(CN3CCN(c4ccccc4)CC3)ccc21 | 10.8 |
| CCCN1C(=O)COc2cc(CN3CCN(c4ccccc4)CC3)ccc21 | 12.8 |
| O=C1COc2cc(CN3CCN(c4ccccc4)CC3)ccc2N1Cc1ccccc1 | 13.9 |
| CCN1C(=O)COc2cc(CN3CCN(c4ccc(F)cc4)CC3)ccc21 | 11.1 |
| CC(C)N1C(=O)COc2cc(CN3CCN(c4ccc(F)cc4)CC3)ccc21 | 13.3 |
| CCCN1C(=O)COc2cc(CN3CCN(c4ccc(F)cc4)CC3)ccc21 | 11.4 |
| CCCCN1C(=O)COc2cc(CN3CCN(c4ccc(F)cc4)CC3)ccc21 | 15.2 |
| O=C1COc2cc(CN3CCN(c4ccc(F)cc4)CC3)ccc2N1Cc1ccccc1 | 19.4 |
| CCN1C(=O)COc2cc(CN3CCN(c4ccccc4F)CC3)ccc21 | 12.7 |
| CC(C)N1C(=O)COc2cc(CN3CCN(c4ccccc4F)CC3)ccc21 | 13.6 |
| CCCN1C(=O)COc2cc(CN3CCN(c4ccccc4F)CC3)ccc21 | 13.8 |
| CC(=O)Oc1ccccc1C(=O)O [ASPIRIN] | 7.07 |
| Clc1ccccc1CN1CCc2sccc2C1 [TICLOPIDINE] | 3.72 |
